Residues, ends and D or L forms follow the SMILES beside them.

In one data set the test system is HeLa S3 cells. Briefly: Protective effect of peptides on apoptosis and necrosis in the presence of camptothecin (Annexin-V FITC / PI flow cytofluorimetry). Type of data set: cell-based, human. The following applies: HeLa cell culture, 24 hours. The source says: (§1) The experiments to study the effect of peptides on apoptosis and necrosis involved the use of reagents in the ApoTarget Annexin-V FITC Apoptosis Kit (Invitrogen, CIIIA). In addition to Annexin-V, marked by the FITC fluorescent stain, the ApoTarget Annexin-V FITC Apoptosis Kit contains propidium iodide (PI), a dye. PI can permeate only those cells whose cytoplasmic membrane is damaged, which is a characteristic sign of an advanced stage of apoptosis or necrosis. Having permeated cells with damaged cell membrane, PI binds itself to the DNA. The «red» fluorescence of resulting complexes is identified with a flow cytofluorimeter.
(§2) Therefore, the procedure of double staining (Annexin-V FITC plus PI) and the process of flow cytofluorimetry can be used to distinguish 3 cell populations and determine their percentage relationship: 1) non-apoptotic cells (Annexin-V-negative and PI-negative), 2) cells at an early stage of apoptosis (Annexin-V-positive and PI-negative), 3) necrotic cells or cells at an advanced stage of apoptosis (Annexin-V- positive and PI- positive). An increase in the percentage of apoptotic and necrotic cells can serve as a measure of how the compounds added to the culture medium act on these processes. Camptothecin (Camptothecin, Sigma, CIIIA), which is recommended by the manufacturer, was used as control in the experiments because of its pronounced ability to induce apoptosis and necrosis of cells, especially tumor ones.
(§3) Peptide solutions in sterile PBS with concentrations of 1 mg/ml were prepared immediately before the experiments to study the peptides' effect on apoptosis and necrosis. The same solutions that were stored in sterile test tubes at +4°C were used to study the proliferation activity. Working dilutions of peptides in the cell cultivation medium were prepared on the day of each experiment. A sterile plastic 96-well plate (Corning, USA) was used for this purpose. The dilutions were prepared so that the introduction of 25 µl of each working dilution in an experimental well with cultivated cells would result in final concentrations of peptides equal to 400, 200, 100 and 50 ng/ml.
(§4) The HeLa S3 and NIH 3T3 cells were cultivated with the use of reagents manufactured by Invitrogen (USA) and plastic vials, plates, pipettes and filters of Corning (USA). The cells were cultivated in DMEM, prepared with a dry concentrate dissolved in pyrogen-free distilled water (Millipore, USA). The medium contained 10 % FBS, 2 mM of glutamine and penicillin-streptomycin (diluted according to the vendor's recommendations). HeLa S3 and NIH 3T3 were grown in vials T150 at +37 °C in the atmosphere of 5.6 % CO2. The cells were constantly maintained in the logarithmic growth phase, to this end they were passed at least 2 times a week, with trypsin used to remove cells from the walls of the culture vials. Live cells were counted in a hemacytometer after staining the suspension aliquot with trypan blue.
(§5) The HeLa S3 and NIH 3T3 cells were removed from the surface of the culture vials and counted; the concentration was moved to 10^5 cell/ml, and the resulting suspensions were put in doses of 1 ml in the wells of a 24-well plate.
(§6) Having made sure on the following day that the cells adhered to the plate's surface, the culture medium was replaced with a fresh one in each well.
(§7) Camptothecin was added in the control wells (positive control - stimulation of apoptosis and necrosis) to the final concentration of 50 µM that had been determined in preliminary experiments with the NIH 3T3 and HeLa S3 cells. 25 µl of fresh culture medium were added in the control wells (negative control), 25 µl of working peptide dilutions were added in each experimental well (each working dilution - twice), as well as camptothecin in the same final concentration. Incubation was conducted at +37 °C. […]

The next data set deals with NIH 3T3 cells. The data set is described as above. The following applies: NIH3T3 cell culture, 24 hours. Type of data set: cell-based, mice.
Description: as §1, §2, §3, §4, §5, §6, §7

Data set [1] can be described thus: Stability of peptides in storage in solution (HPLC analysis). The following applies: 0.05 M ammonium acetate buffer, approx. 1 mg/ml.
Description: The peptides were dissolved in 0.05 M of an ammonium acetate buffer with pH 4.5 and pH 7.5 so that their concentrations achieved approximately 1 mg/ml. The solutions were sterilely filtered and kept in sterile, well-sealed vials. Upon expiration of the storage period the substances were analyzed with HPLC.
Setting [2] is: peptide 50 ng/ml + camptothecin 50 µM.
The mark [3] stands for this setting: peptide 100 ng/ml + camptothecin 50 µM.
Where [4] appears, read: peptide 200 ng/ml + camptothecin 50 µM.
Setting [5] is: peptide 400 ng/ml + camptothecin 50 µM.

For `COC(=O)[C@H](CCC(=O)O)NC(=O)[C@@H](N)CC(=O)O` [DEOMe, H-Asp-Glu-OCH3] (HELM PEPTIDE1{D.E.[CO[*:1]]}$$$$V2.0), the Apoptosis came out at 4% with HeLa S3 cells (setting [2]); 2.1% with HeLa S3 cells (setting [3]); 2.3% in the data set on HeLa S3 cells (setting [4]); 2.5% in the data set with HeLa S3 cells (setting [5]); 4% with NIH 3T3 cells (setting [2]); 2.5% in the data set on NIH 3T3 cells (setting [3]). Further, the figures for the Apoptosis with NIH 3T3 cells (setting [4]) and with NIH 3T3 cells (setting [5]) were 3% and 3.3%, respectively. Also, the Necrosis with HeLa S3 cells (setting [2]) was determined as 5%; with HeLa S3 cells (setting [3]), 4.5%; with HeLa S3 cells (setting [4]), 4.5%; in the data set on HeLa S3 cells (setting [5]), 5.5%; with NIH 3T3 cells (setting [2]), 6%; in the data set on NIH 3T3 cells (setting [3]) it was 4%. Besides, the Necrosis stood at 5% in the data set on NIH 3T3 cells (setting [4]) and 6% in the data set with NIH 3T3 cells (setting [5]). Moreover, the “Peptide stability in storage” value is recorded as 98.0 in data set [1] (1hour, pH 4.5, 22°C); 98.0 in data set [1] (1hour, pH 7.5, 22°C); 98.1 in data set [1] (10 days, pH 4.5, 22°C); 98.0 in data set [1] (10 days, pH 7.5, 22°C); 97.7 in data set [1] (30 days, pH 4.5, 22°C); 97.65 in data set [1] (30 days, pH 7.5, 22°C). For the same compound, the “Peptide stability in storage” value is reported as 97.55 in data set [1] (60 days, pH 4.5, 22°C); 97.5 in data set [1] (60 days, pH 7.5, 22°C); 97.5 in data set [1] (90 days, pH 4.5, 22°C); 97.2 in data set [1] (90 days, pH 7.5, 22°C).

For the compound H-Leu-Asp-Glu-OH [LDE], the Apoptosis in the data set on HeLa S3 cells (setting [2]) turned out to be 1%; in the data set with HeLa S3 cells (setting [3]) it was 1.4%; in the data set on HeLa S3 cells (setting [4]), 0.5%; with HeLa S3 cells (setting [5]), 1%; in the data set on NIH 3T3 cells (setting [2]), 2%; in the data set with NIH 3T3 cells (setting [3]) it was 2.5%. The Apoptosis in the data set with NIH 3T3 cells (setting [4]) is recorded as 1.6%; in the data set on NIH 3T3 cells (setting [5]), 2.5%. The Necrosis in the data set with HeLa S3 cells (setting [2]) stood at 2.5%; with HeLa S3 cells (setting [3]) it was 3.1%; in the data set with HeLa S3 cells (setting [4]), 2.2%; in the data set with HeLa S3 cells (setting [5]), 2.1%; in the data set on NIH 3T3 cells (setting [2]), 3.7%; with NIH 3T3 cells (setting [3]), 3.8%. Moreover, the Necrosis is listed as 3.5% with NIH 3T3 cells (setting [4]) and 3.4% with NIH 3T3 cells (setting [5]). In addition, the “Peptide stability in storage” value in data set [1] (1hour, pH 4.5, 22°C) came out at 96.5; in data set [1] (1hour, pH 7.5, 22°C), 96.5; in data set [1] (10 days, pH 4.5, 22°C), 96.4; in data set [1] (10 days, pH 7.5, 22°C), 96.4; in data set [1] (30 days, pH 4.5, 22°C), 96.4; in data set [1] (30 days, pH 7.5, 22°C), 96.4. In addition, the “Peptide stability in storage” value is recorded as 96.2 in data set [1] (60 days, pH 4.5, 22°C); 96.2 in data set [1] (60 days, pH 7.5, 22°C); 96.2 in data set [1] (90 days, pH 4.5, 22°C); 95.6 in data set [1] (90 days, pH 7.5, 22°C).

With `CC(=O)N[C@@H](CC(=O)O)C(=O)N[C@@H](CCC(=O)O)C(=O)O` [AcDE, Ac-Asp-Glu-OH] (Ac-Asp-Glu-OH), the Apoptosis in the data set on HeLa S3 cells (setting [2]) is reported as 21%; in the data set on HeLa S3 cells (setting [3]) it was 17%; in the data set with HeLa S3 cells (setting [4]), 15%; in the data set on HeLa S3 cells (setting [5]), 22%; with NIH 3T3 cells (setting [2]), 35%; in the data set with NIH 3T3 cells (setting [3]), 30%. The Apoptosis with NIH 3T3 cells (setting [4]) amounted to 22%; in the data set on NIH 3T3 cells (setting [5]) it was 19%. Further, the Necrosis in the data set on HeLa S3 cells (setting [2]) was determined as 13%; with HeLa S3 cells (setting [3]) it was 11%; with HeLa S3 cells (setting [4]), 8%; in the data set on HeLa S3 cells (setting [5]) it was 7%; in the data set with NIH 3T3 cells (setting [2]) it was 50%; in the data set on NIH 3T3 cells (setting [3]), 46%. The figures for the Necrosis in the data set on NIH 3T3 cells (setting [4]) and with NIH 3T3 cells (setting [5]) were 34% and 28%, respectively.

H-Val-Asp-Glu-OH [VDE]: the Apoptosis with HeLa S3 cells (setting [2]) is reported as 2.2%; in the data set on HeLa S3 cells (setting [3]), 3.1%; in the data set with HeLa S3 cells (setting [4]), 3.5%; with HeLa S3 cells (setting [5]), 2%; in the data set on NIH 3T3 cells (setting [2]) it was 3.5%; in the data set with NIH 3T3 cells (setting [3]), 1.8%. The Apoptosis came to 2.2% in the data set with NIH 3T3 cells (setting [4]) and 3% with NIH 3T3 cells (setting [5]). The Necrosis in the data set on HeLa S3 cells (setting [2]) is 3.1%; with HeLa S3 cells (setting [3]), 3.6%; in the data set with HeLa S3 cells (setting [4]), 4%; in the data set with HeLa S3 cells (setting [5]), 2.4%; in the data set on NIH 3T3 cells (setting [2]) it was 5%; in the data set on NIH 3T3 cells (setting [3]) it was 2%. Further, the Necrosis with NIH 3T3 cells (setting [4]) is 3%; with NIH 3T3 cells (setting [5]), 4%. Besides, the “Peptide stability in storage” value was found to be 98.1 in data set [1] (1hour, pH 4.5, 22°C); 98.1 in data set [1] (1hour, pH 7.5, 22°C); 98.0 in data set [1] (10 days, pH 4.5, 22°C); 97.7 in data set [1] (10 days, pH 7.5, 22°C); 97.6 in data set [1] (30 days, pH 4.5, 22°C); 97.6 in data set [1] (30 days, pH 7.5, 22°C). Further, the “Peptide stability in storage” value turned out to be 97.55 in data set [1] (60 days, pH 4.5, 22°C); 97.55 in data set [1] (60 days, pH 7.5, 22°C); 97.55 in data set [1] (90 days, pH 4.5, 22°C); 97.2 in data set [1] (90 days, pH 7.5, 22°C).

Regarding `CCNC(=O)[C@H](CCC(=O)O)NC(=O)[C@@H](N)CC(=O)O` [DENHEt, H-Asp-Glu-NH-CH2-CH3] (HELM PEPTIDE1{D.E.[CCN[*:1]]}$$$$V2.0), the Apoptosis worked out at 15% with HeLa S3 cells (setting [2]); 9% with HeLa S3 cells (setting [3]); 8% in the data set with HeLa S3 cells (setting [4]); 8% in the data set on HeLa S3 cells (setting [5]); 25% in the data set on NIH 3T3 cells (setting [2]); 23% in the data set on NIH 3T3 cells (setting [3]). For the same compound, the Apoptosis with NIH 3T3 cells (setting [4]) is given as 21%; with NIH 3T3 cells (setting [5]) it was 18%. The Necrosis with HeLa S3 cells (setting [2]) amounted to 20%; in the data set with HeLa S3 cells (setting [3]) it was 18%; in the data set on HeLa S3 cells (setting [4]), 13%; in the data set on HeLa S3 cells (setting [5]) it was 16%; with NIH 3T3 cells (setting [2]), 13%; in the data set with NIH 3T3 cells (setting [3]) it was 12%. The Necrosis with NIH 3T3 cells (setting [4]) amounted to 11%; in the data set on NIH 3T3 cells (setting [5]), 7%. For the same compound, the “Peptide stability in storage” value in data set [1] (1hour, pH 4.5, 22°C) was found to be 98.1; in data set [1] (1hour, pH 7.5, 22°C), 98.2; in data set [1] (10 days, pH 4.5, 22°C), 98.3; in data set [1] (10 days, pH 7.5, 22°C), 98.2; in data set [1] (30 days, pH 4.5, 22°C) it was 98.15; in data set [1] (30 days, pH 7.5, 22°C), 98.10. The “Peptide stability in storage” value in data set [1] (60 days, pH 4.5, 22°C) was found to be 98.0; in data set [1] (60 days, pH 7.5, 22°C), 98.0; in data set [1] (90 days, pH 4.5, 22°C), 97.9; in data set [1] (90 days, pH 7.5, 22°C) it was 97.85.

For the origin of these results see patent EP2963052A2, “PEPTIDES WITH CYTOPROTECTIVE ACTIVITY” (Zamerton Holdings Limited, priority 2013, dated 2016).
